Test results as given in PMC12094199 (Science Advances, 2025).

Experiments:
[1] = Cell survival assay; assay type: cell-based; conditions: human, HEK-293 cells
[2] = system: U87MG cells; assay: Cell survival assay; assay type: cell-based; conditions: Homo sapiens, U-87 MG, 48 h, read-out: IC50 (cytotoxicity)

Molecule `CC(=O)O[C@H]1C(=O)[C@@]2(C)[C@H]([C@H](OC(=O)c3ccccc3)[C@]3(O)C[C@H](OC(=O)[C@H](O)[C@@H](NC(=O)c4ccccc4)c4ccccc4)C(C)=C1C3(C)C)[C@]1(OC(C)=O)CO[C@@H]1C[C@@H]2O` [PTX, paclitaxel] has an IC50 at 48 h [1] of 27.8 ± 3.3 nM and an IC50 [2] of 218 ± 54.2 nM.
